Patent publication US20240368150A1 (Hoffmann-La Roche Inc., priority 2021, published 2024)
pEC50: −log10 of the molar value. Read-outs that look alike come from different tables or passages of the source.

Legend:
primary human T-cells [1] = test system: primary human T-cells
primary human T-cells [2] = assay: Proliferation assay after 5 days (CellTiter-Glo, CD3 stimulation; PBS counter screen); assay type: cell-based; details: Homo sapiens, T-cell, 120 h, CD3 stimulation; for Emax: 5 days, normalized to reference compound A1 as stimulator control = 100%, DMSO neutral control, read-out: Emax proliferation (% activation); for pEC50: primary human T-cells, CellTiter-Glo after 5 days, EC50 of fitted sigmoidal curve, read-out: Tcell Proliferation CD3 EC50
Method in brief: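 Luminescent ATP detection (CellTiter-Glo 2.0) quantified cell number 5 days after compounds went onto medium-only plates. Wells showing visible toxicity or precipitate were noted beforehand, and compounds that stimulated unstimulated cells or lowered viability were flagged.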

Row | pEC50 (primary human T-cells [1]) | Compound | Emax (primary human T-cells [2]) [%] | pEC50 (primary human T-cells [2])
1 | 6.02 | CC(C)(C)c1nnc(-c2ccc3c(c2)N(Cc2ccc(OCC(F)(F)F)cc2)C(=O)[C@@H](N)CS3(=O)=O)o1 [Example 429, (3R)-3-amino-7-(5-tert-butyl-1,3,4-oxadiazol-2-yl)-1,1-dioxo-5-[[4-(2,2,2-trifluoroethoxy)phenyl]methyl]-2,3-dihydro-1λ^6,5-benzothiazepin-4-one] | 103 | 5.31
2 | 5.39 | CC(C)(C)c1nnc(-c2ccc3c(c2)N(Cc2ccc(OCC4CC4)cc2)C(=O)[C@@H](N)CS3(=O)=O)o1 [Example 431, (3R)-3-amino-7-(5-tert-butyl-1,3,4-oxadiazol-2-yl)-5-[[4-(cyclopropylmethoxy)phenyl]methyl]-1,1-dioxo-2,3-dihydro-1λ^6,5-benzothiazepin-4-one] | 110 | 5.71
3 | 5.57 | CC(C)(C)c1nnc(-c2ccc3c(c2)N(Cc2ccc(OCC(F)F)cc2)C(=O)[C@@H](N)CS3(=O)=O)o1 [Example 432, (3R)-3-amino-7-(5-tert-butyl-1,3,4-oxadiazol-2-yl)-5-[[4-(2,2-difluoroethoxy)phenyl]methyl]-1,1-dioxo-2,3-dihydro-1λ^6,5-benzothiazepin-4-one] | 103 | 5.84
4 | 5.25 | CC(C)(C)c1nnc(-c2ccc3c(c2)N(Cc2ccc(OCC4CCOCC4)cc2)C(=O)[C@@H](N)CS3(=O)=O)o1 [Example 433, (3R)-3-amino-7-(5-tert-butyl-1,3,4-oxadiazol-2-yl)-1,1-dioxo-5-[[4-(tetrahydropyran-4-ylmethoxy)phenyl]methyl]-2,3-dihydro-1λ^6,5-benzothiazepin-4-one] | 105 | 5.32
5 | 5.21 | CC(C)(C)c1nnc(-c2ccc3c(c2)N(Cc2ccc(OC4CCCCC4)cc2)C(=O)[C@@H](N)CS3(=O)=O)o1 [Example 434, (3R)-3-amino-7-(5-tert-butyl-1,3,4-oxadiazol-2-yl)-5-[[4-(cyclohexoxy)phenyl]methyl]-1,1-dioxo-2,3-dihydro-1λ^6,5-benzothiazepin-4-one] | 130 | 
6 | 5.48 | CC(C)(C)c1nnc(-c2ccc3c(c2)N(Cc2ccc(OC4CC4)cc2)C(=O)[C@@H](N)CS3(=O)=O)o1 [Example 435] | 117 | 6.17
7 | 5.37 | CC(C)(C)c1nnc(-c2ccc3c(c2)N(Cc2ccc(OC4CCOCC4)cc2)C(=O)[C@@H](N)CS3(=O)=O)o1 [Example 436, (3R)-3-amino-7-(5-tert-butyl-1,3,4-oxadiazol-2-yl)-1,1-dioxo-5-[(4-tetrahydropyran-4-yloxyphenyl)methyl]-2,3-dihydro-1λ^6,5-benzothiazepin-4-one] | 66 | 6.03
8 | 5.41 | CC#CCOc1ccc(CN2C(=O)[C@@H](N)CS(=O)(=O)c3ccc(-c4nnc(C(C)(C)C)o4)cc32)cc1 [Example 441, (3R)-3-amino-7-(5-tert-butyl-1,3,4-oxadiazol-2-yl)-5-[(4-but-2-ynoxyphenyl)methyl]-1,1-dioxo-2,3-dihydro-1λ^6,5-benzothiazepin-4-one] | 128 | 5.99
9 | 5.12 | CC(C)(C)c1nnc(-c2ccc3c(c2)N(Cc2ccc(N4CCOCC4)cc2)C(=O)[C@@H](N)CS3(=O)=O)o1 [Example 446, (3R)-3-amino-7-(5-tert-butyl-1,3,4-oxadiazol-2-yl)-5-[(4-morpholinophenyl)methyl]-1,1-dioxo-2,3-dihydro-1λ^6,5-benzothiazepin-4-one] | 51 | 5.00
10 | 5.60 | COC1CCN(c2ccc(CN3C(=O)[C@@H](N)CS(=O)(=O)c4ccc(-c5nnc(C(C)(C)C)o5)cc43)cc2)CC1 [Example 447, (3R)-3-amino-7-(5-tert-butyl-1,3,4-oxadiazol-2-yl)-5-[[4-(4-methoxy-1-piperidyl)phenyl]methyl]-1,1-dioxo-2,3-dihydro-1λ^6,5-benzothiazepin-4-one] | 113 | < 5.00

Second part, the compound before the results:

Row | Compound | pEC50 (primary human T-cells [1]) | Emax (primary human T-cells [2]) [%] | pEC50 (primary human T-cells [2])
11 | N[C@H]1CS(=O)(=O)c2ccc(-c3nnc(C4(N)CCOCC4)o3)cc2N(Cc2ccc(OC(F)(F)F)cc2)C1=O [Example 418, (3R)-3-amino-7-[5-(4-aminotetrahydropyran-4-yl)-1,3,4-oxadiazol-2-yl]-1,1-dioxo-5-[[4-(trifluoromethoxy)phenyl]methyl]-2,3-dihydro-1λ^6,5-benzothiazepin-4-one] | 5.24 | 52 | 5.02
12 | CNC(C)(C)c1nnc(-c2ccc3c(c2)N(Cc2ccc(OC(F)(F)F)cc2)C(=O)[C@@H](N)CS3(=O)=O)o1 [Example 419, (3R)-3-amino-7-[5-[1-methyl-1-(methylamino)ethyl]-1,3,4-oxadiazol-2-yl]-1,1-dioxo-5-[[4-(trifluoromethoxy)phenyl]methyl]-2,3-dihydro-1λ^6,5-benzothiazepin-4-one] | 5.82 | 62 | 5.14
13 | CC(C)(C#N)c1nnc(-c2ccc3c(c2)N(Cc2ccc(OC(F)(F)F)cc2)C(=O)[C@@H](N)CS3(=O)=O)o1 [Example 420, 2-[5-[(3R)-3-amino-1,1,4-trioxo-5-[[4-(trifluoromethoxy)phenyl]methyl]-2,3-dihydro-1λ^6,5-benzothiazepin-7-yl]-1,3,4-oxadiazol-2-yl]-2-methyl-propanenitrile] | 5.87 | 167 | 5.80
14 | CN1CC(c2nnc(-c3ccc4c(c3)N(Cc3ccc(OC(F)(F)F)cc3)C(=O)[C@@H](N)CS4(=O)=O)o2)CC(F)(F)C1 (stereo partly drawn) [Example 421, (3R)-3-amino-7-[5-(5,5-difluoro-1-methyl-3-piperidyl)-1,3,4-oxadiazol-2-yl]-1,1-dioxo-5-[[4-(trifluoromethoxy)phenyl]methyl]-2,3-dihydro-1λ^6,5-benzothiazepin-4-one] | 5.49 | 123 | 5.61
15 | COC(=O)N1CC2CC(c3nnc(-c4ccc5c(c4)N(Cc4ccc(OC(F)(F)F)cc4)C(=O)[C@@H](N)CS5(=O)=O)o3)(C2)C1 [Example 422, Methyl 1-[5-[(3R)-3-amino-1,1,4-trioxo-5-[[4-(trifluoromethoxy)phenyl]methyl]-2,3-dihydro-1λ^6,5-benzothiazepin-7-yl]-1,3,4-oxadiazol-2-yl]-3-azabicyclo[3.1.1]heptane-3-carboxylate] | 6.08 | 102 | 5.74
16 | COC(=O)N1CCC(c2nnc(-c3ccc4c(c3)N(Cc3ccc(OC(F)(F)F)cc3)C(=O)[C@@H](N)CS4(=O)=O)o2)C1 (stereo partly drawn) [Example 423, methyl 3-[5-[(3R)-3-amino-1,1,4-trioxo-5-[[4-(trifluoromethoxy)phenyl]methyl]-2,3-dihydro-1λ^6,5-benzothiazepin-7-yl]-1,3,4-oxadiazol-2-yl]pyrrolidine-1-carboxylate] | 5.82 | 78 | 5.76
17 | COC(F)(c1nnc(-c2ccc3c(c2)N(Cc2ccc(OC(F)(F)F)cc2)C(=O)[C@@H](N)CS3(=O)=O)o1)C(F)(F)F (stereo partly drawn) [Example 424, (3R)-3-amino-1,1-dioxo-7-[5-(1,2,2,2-tetrafluoro-1-methoxy-ethyl)-1,3,4-oxadiazol-2-yl]-5-[[14-(trifluoromethoxy)phenyl]methyl]-2,3-dihydro-1λ^6,5-benzothiazepin-4-one] | 7.16 | 88 | 7.14
18 | CC(C)(C)c1nnc(-c2ccc3c(c2)N(Cc2ccc(Oc4ccc(F)cc4)cc2)C(=O)[C@@H](N)CS3(=O)=O)o1 [Example 439, (3R)-3-amino-7-(5-tert-butyl-1,3,4-oxadiazol-2-yl)-5-[[4-(4-fluorophenoxy)phenyl]methyl]-1,1-dioxo-2,3-dihydro-1λ^6,5-benzothiazepin-4-one] | 5.68 | 138 | 6.52
19 | CC(C)(C)c1nnc(-c2ccc3c(c2)N(Cc2ccc(Oc4ccc(C(F)(F)F)cn4)cc2)C(=O)[C@@H](N)CS3(=O)=O)o1 [Example 440, (3R)-3-amino-7-(5-tert-butyl-1,3,4-oxadiazol-2-yl)-1,1-dioxo-5-[[4-[[5-(trifluoromethyl)-2-pyridyl]oxy]phenyl]methyl]-2,3-dihydro-1λ^6,5-benzothiazepin-4-one] | 5.60 | 110 | 5.60
20 | COC(=O)N1CC2CC(c3nnc(-c4ccc5c(c4)N(Cc4ccc(OC(F)(F)C(F)F)cc4)C(=O)[C@@H](N)CS5(=O)=O)o3)(C2)C1 [Example 443, Methyl 1-[5-[(3R)-3-amino-1,1,4-trioxo-5-[[4-(1,1,2,2-tetrafluoroethoxy)phenyl]methyl]-2,3-dihydro-1λ^6,5-benzothiazepin-7-yl]-1,3,4-oxadiazol-2-yl]-3-azabicyclo[3.1.1]heptane-3-carboxylate] | < 5.00 | 97 | 5.41
21 | CC(C)(C)c1nnc(-c2ccc3c(c2)N(Cc2ccc(N4CCN(C5CC5)CC4)cc2)C(=O)[C@@H](N)CS3(=O)=O)o1 [Example 445, (3R)-3-amino-7-(5-tert-butyl-1,3,4-oxadiazol-2-yl)-5-[[4-(4-cyclopropylpiperazin-1-yl)phenyl]methyl]-1,1-dioxo-2,3-dihydro-1λ^6,5-benzothiazepin-4-one] | 5.02 | 88 | 5.37
22 | CC(C)(C)c1nnc(-c2ccc3c(c2)N(Cc2ccc(N4CCCC4)cc2)C(=O)[C@@H](N)CS3(=O)=O)o1 [Example 448, (3R)-3-amino-7-(5-tert-butyl-1,3,4-oxadiazol-2-yl)-1,1-dioxo-5-[(4-pyrrolidin-1-ylphenyl)methyl]-2,3-dihydro-1λ^6.5-benzothiazepin-4-one] | 5.33 | 94 | 5.71
